Patent US20150216182A1, “COMPOSITIONS AND METHODS OF THE ATTRACTION AND REPULSION OF INSECTS” (Olfactor Laboratories, Inc., priority 2012, published 2015)

What was measured:
cpA neurons = assay: extracellular single-sensillum electrophysiology: activation of cpA neuronal activity; conditions: Table 6; single compounds; increase over baseline cpA neuronal activity
female mosquitoes = assay: whole plant or invertebrate; conditions: 2 h; for mortality at 200 µg/mL: read-out: % mortality with 0.2 mg/ml; for mortality at 2000 µg/mL: read-out: % mortality with 2 mg/ml
larvae = assay: larvicidal activity assay; type: in vivo; conditions: 24 hour exposure, dead larvae / total larvae; for pest or weed control at 0.25 %: read-out: % Lethality with 0.25% compound conc.; for pest or weed control at 100 ppm: read-out: % Lethality at 100 ppm
Method: A 6-well plate (Corning Life Sciences, Tewksbury, Mass.) is used to test a compound's larvicidal activity. […] After a 24 hour exposure, the number of dead larvae are counted and recorded.
The results are presented in Table 17 as % lethality (the number of dead larvae divided by the total number of larvae).

Row | Compound | Class (cpA neurons) | also measured
1 | C=CC(=O)CC [OLI0023, ethylvinylketone] | Moderate Activator (Moderate activators yield an increase in neuronal activity that is between 40 and 60 spk/sec over baseline neuronal activity) | 
2 | Cc1ccc(C=O)c(C)c1 [OLI0030, 2,4-dimethyl benzaldehyde] | Mild Activator (mild activators yield an increase in neuronal activity that is between 20 and 40 spk/sec over baseline neuronal activity) | 
3 | CC1=CC(C)C(C=O)CC1 (stereo not shown) [OLI0031, 2,4-dimethyl-3-cyclohexene-carboxaldehyde] | Mild Activator (mild activators yield an increase in neuronal activity that is between 20 and 40 spk/sec over baseline neuronal activity) | 
4 | COc1cc(C)ccc1O [OLI0033, 2-methoxy-4-methylphenol] | Mild Activator (mild activators yield an increase in neuronal activity that is between 20 and 40 spk/sec over baseline neuronal activity) | 
5 | CC(C=O)c1ccccc1 (stereo not shown) [OLI0034, 2-phenylpropionaldehyde] | Mild Activator (mild activators yield an increase in neuronal activity that is between 20 and 40 spk/sec over baseline neuronal activity) | 
6 | CCCC(=O)CC [OLI0035, 3-hexanone] | Mild Activator (mild activators yield an increase in neuronal activity that is between 20 and 40 spk/sec over baseline neuronal activity) | 
7 | CCc1ccc(C=O)cc1 [OLI0036, 4-ethylbenzaldehyde] | Mild Activator (mild activators yield an increase in neuronal activity that is between 20 and 40 spk/sec over baseline neuronal activity) | 
8 | CC1=CC(=O)CC(C)(C)C1=O [OLI0037, 4-oxoisophorone] | Mild Activator (mild activators yield an increase in neuronal activity that is between 20 and 40 spk/sec over baseline neuronal activity) | 
9 | CC(=O)c1cnccn1 [OLI0038, acetyl-2-pyrazine] | Mild Activator (mild activators yield an increase in neuronal activity that is between 20 and 40 spk/sec over baseline neuronal activity) | 
10 | CCCC(=O)OC(C)C(C)=O (stereo not shown) [OLI0039, butan-3-one-2yl butanoate] | Mild Activator (mild activators yield an increase in neuronal activity that is between 20 and 40 spk/sec over baseline neuronal activity) | 
11 | COC(=O)CCC(=O)OC [OLI0040, dimethyl succinate] | Mild Activator (mild activators yield an increase in neuronal activity that is between 20 and 40 spk/sec over baseline neuronal activity) | 
12 | CCOC=O [OLI0044, ethylformate] | Mild Activator (mild activators yield an increase in neuronal activity that is between 20 and 40 spk/sec over baseline neuronal activity) | 
13 | CCOC(=O)C(C)C [OLI0045, ethylisobutyrate] | Mild Activator (mild activators yield an increase in neuronal activity that is between 20 and 40 spk/sec over baseline neuronal activity) | 
14 | CCOC(=O)CC(C)C [OLI0046, ethylisovalerate] | Mild Activator (mild activators yield an increase in neuronal activity that is between 20 and 40 spk/sec over baseline neuronal activity) | 
15 | CCOC(=O)CCC(C)=O [OLI0047, ethyllevulinate] | Mild Activator (mild activators yield an increase in neuronal activity that is between 20 and 40 spk/sec over baseline neuronal activity) | 
16 | CCOCc1ccco1 [OLI0048, furfurylethylether] | Mild Activator (mild activators yield an increase in neuronal activity that is between 20 and 40 spk/sec over baseline neuronal activity) | 
17 | CCCCCCC=O [OLI0049, heptaldehyde] | Mild Activator (mild activators yield an increase in neuronal activity that is between 20 and 40 spk/sec over baseline neuronal activity) | 
18 | CCCC(=O)CCC [OLI0050, heptanone-4] | Mild Activator (mild activators yield an increase in neuronal activity that is between 20 and 40 spk/sec over baseline neuronal activity) | 

Row | Compound | Class (cpA neurons) | also measured
19 | CCCCCC=O [OLI0051, hexanal] | Mild Activator (mild activators yield an increase in neuronal activity that is between 20 and 40 spk/sec over baseline neuronal activity) | 
20 | CC(=O)OCC(C)C [OLI0053, isobutyl acetate] | Mild Activator (mild activators yield an increase in neuronal activity that is between 20 and 40 spk/sec over baseline neuronal activity) | 
21 | CCC(=O)OCC(C)C [OLI0054, isobutyl propionate] | Mild Activator (mild activators yield an increase in neuronal activity that is between 20 and 40 spk/sec over baseline neuronal activity) | 
22 | C/C=C/C(=O)OCC(C)C [OLI0055, isobutyl trans-2-butenoate] | Mild Activator (mild activators yield an increase in neuronal activity that is between 20 and 40 spk/sec over baseline neuronal activity) | 
23 | CCCC(=O)OC(C)C [OLI0056, isopropyl butyrate] | Mild Activator (mild activators yield an increase in neuronal activity that is between 20 and 40 spk/sec over baseline neuronal activity) | 
24 | C/C=C(\C)C(=O)OC(C)C [OLI0057, isopropyl tiglate] | Mild Activator (mild activators yield an increase in neuronal activity that is between 20 and 40 spk/sec over baseline neuronal activity) | 
25 | COC(=O)CC(C)C [OLI0058, methyl isovalerate] | Mild Activator (mild activators yield an increase in neuronal activity that is between 20 and 40 spk/sec over baseline neuronal activity) | 
26 | Cc1cccc(C=O)c1 [OLI0060, m-tolualdehyde] | Mild Activator (mild activators yield an increase in neuronal activity that is between 20 and 40 spk/sec over baseline neuronal activity) | 
27 | COc1ccccc1C=O [OLI0061, o-anisaldehyde] | Mild Activator (mild activators yield an increase in neuronal activity that is between 20 and 40 spk/sec over baseline neuronal activity) | 
28 | CC(=O)OCC=C(C)C [OLI0062, prenylacetate] | Mild Activator (mild activators yield an increase in neuronal activity that is between 20 and 40 spk/sec over baseline neuronal activity) | 
29 | CC(C)=C1CC[C@@H](C)CC1=O [OLI0064, R-+ pulegone] | Mild Activator (mild activators yield an increase in neuronal activity that is between 20 and 40 spk/sec over baseline neuronal activity) | 
30 | O=C(C=Cc1ccccc1)OCCc1ccccc1 [OLI0103, phenethyl cinnamate] |  | mortality at 200 µg/mL (female mosquitoes): 5%; mortality at 2000 µg/mL (female mosquitoes): 25%; pest or weed control at 0.25 % (larvae; 0.25% compound): 0%; pest or weed control at 100 ppm (larvae; 100 ppm compound): 0%
31 | CC(C)C(=O)OCC=Cc1ccccc1 [OLI0108, cinnamyl isobutyrate] |  | mortality at 200 µg/mL (female mosquitoes): 10%; mortality at 2000 µg/mL (female mosquitoes): 100%
32 | O=Cc1ccccc1O [OLI0116, Salicylaldehyde] |  | mortality at 200 µg/mL (female mosquitoes): 0%; mortality at 2000 µg/mL (female mosquitoes): 0%
33 | CC(C)C(=O)OCC=Cc1ccccc1 [OLI0117, cinnamyl isobutyrate] |  | pest or weed control at 0.25 % (larvae; 0.25% compound): 100%; pest or weed control at 100 ppm (larvae; 100 ppm compound): 0%
34 | Ultrazur [OLI0118] |  | % Lethality with 0.25% compound conc. (larvae; 0.25% compound): 100% lethal; % Lethality at 100 ppm (larvae; 100 ppm compound): 0% lethal
35 | dipropylenglykol-monomethyl ether [OLI0041] | Mild Activator (mild activators yield an increase in neuronal activity that is between 20 and 40 spk/sec over baseline neuronal activity) | 
36 | ethyl-2,3,5(6)-dimethyl pyrazine [OLI0043] | Mild Activator (mild activators yield an increase in neuronal activity that is between 20 and 40 spk/sec over baseline neuronal activity) | 
